In patent US20250099609A1 (priority 2023, published 2025):

Columns and labels:
[1] = system: osteoclasts; test: Osteoclast maturation (DAPI/Phalloidin staining); format: cell-based; conditions: without radiation
Method: This treatment was carried out without exposing the osteoclasts to radiation.

[2] = system: stem cells; test: Stem cell conversion to fat cells after radiation; format: cell-based; conditions: after exposure to radiation (IR 21d)
Method: All treatment was administered with radiation (IR 21d).
Radiation exposure, post-menopausal osteoporosis, and diabetes are conditions that cause stem cells to favor conversion to fat cells instead of conversion to bone cells. This process progresses to tissue dysfunction. Stem cells were treated with P7C3 or with cerium oxide nanoparticles (CNPs) after exposure to radiation. […] All treatment was administered with radiation (IR 21d).

[3] = system: stem cells; test: Bone mineral formation / new bone deposition after radiation (Alizarin red); format: cell-based; conditions: 14 days of culture; treatment 24 h or 48 h after radiation (7 Gy)
Method: Radiation reduces the ability of bone cells to produce bone. […] This is further confirmed when the cells are cultured over a longer period of 28 days.
The data showing assessed bone formation was supported by quantification of new bone deposition.
(**** p<0.000) The synergistic effect continues when treatment is administered more than 24 hours after radiation exposure.

[4] = system: mesenchymal stem cells; test: Alkaline phosphatase (ALP) assay after radiation; format: cell-based; conditions: treatment 24 h or 48 h after ionizing radiation
Source text: FIGS. 6A-B show results of an alkaline phosphatase (ALP) assay. The micrographs show assessed bone formation after treatment with P7C3, with cerium oxide nanoparticles (CNPs), or with a combination of P7C3 and CNPs.

[5] = system: primary and metastatic cancer cell; test: Primary and metastatic cancer cell growth; format: cell-based; conditions: at therapeutic levels
Source text: This invention combines these two unique approaches as a bi-modal and multifunctional chimeric nanostrategy to combat against ionizing radiation-induced damage.

[6] = system: post-menopausal osteoporosis; test: Post-menopausal osteoporosis in animals; format: in vivo
Source text: The above embodiments also relate to the field of medicine for an article of manufacture delivering a prophylactic and therapeutic tissue strategy for osteoporosis. The remarkable increase in average life expectancy during the 20th century ranks as one of society's greatest achievements. As a result, the world's elderly population (aged ≥65 years) continues to grow at an unprecedented rate. As the proportion of the oldest-old (aged >85 years) and length of life expectancy increases, a rise in age-related degenerating diseases, disability, and prolonged dependency is projected. Age-related bone loss and osteoporosis is inevitable in both men and women, and can lead to fragility fractures, immobility, and disability. Currently, bisphosphonate treatment and weight-bearing exercise are commonly used therapeutic approaches, but both with limited long-term success.

[7] = in vivo; cited from earlier work
[8] = system: bone; conditions: literature refs 15 and 19; cited from earlier work

For `OC(CNc1ccccc1)Cn1c2ccc(Br)cc2c2cc(Br)ccc21` (centres unmarked) [P7C3, aminopropyl carbazole], the maturation of osteoclasts [1] was “stops the maturation of osteoclasts”, the “fat formation from stem cells” value [2] was “inhibit fat formation” and the “new bone deposition (micrographs)” value [3] was “does not substantially increase new bone deposition”. For the same compound, the “alkaline phosphatase expression / conversion of stem cells to osteoblasts” value [4] was “limited upregulation”, the “primary and metastatic cancer cell growth” value [5] was “significantly reduces” and the “progression of post-menopausal osteoporosis” value [6] was “reduces the progression”. The oral bioavailability [7] was “high oral bioavailability” and the “countermeasure against ionizing radiation-induced bone damage and/or bone loss” value [8] was “effective countermeasure”.
